The results in this text go back to patent publication US7101872B2, “Farnesyl dibenzodiazepinone, and processes for its production” (Ecopia BioSciences, Inc., priority 2003, dated 2006).

What all share (test): NCI panel SRB growth inhibition
What all share (format): cell-based

The subject of one test is HS 578T. Conditions: Homo sapiens, Breast, 48 h. As to the method:
(§1) The operation of this unique screen utilizes […] different human tumor cell lines, representing leukemia, melanoma and cancers of the lung, colon, brain, ovary, breast, prostate, and kidney.
(§2) Culture conditions and plating: The human tumor cell lines of the cancer-screening panel were grown in RPMI 1640 medium containing 5% fetal bovine serum and 2 mM L-glutamine. For a typical screening experiment, cells were inoculated into 96 well microtiter plates in 100 μL at plating densities ranging from 5,000 to 40,000 cells/well depending on the doubling time of individual cell lines (Table 5). After cell inoculation, the microtiter plates were incubated at 37° C., 5% CO2, 95% air and 100% relative humidity for 24 h prior to addition of experimental drugs. After 24 h, two plates of each cell line were fixed in situ with TCA, to represent a measurement of the cell population for each cell line at the time of drug addition (Tz). Evaluation of inhibitory activity on cell proliferation: ECO-04601 was provided as a lyophilized powder with an estimated purity of 90+%. The compound was stored at −20° C. until day of use. ECO-04601 was solubilized in dimethyl sulfoxide at 400-fold the desired final maximum test concentration. At the time of drug addition, an aliquot of frozen concentrate was thawed and diluted to twice the desired final maximum test concentration with complete medium containing 50 μg/mL gentamicin. Additional four, 10-fold or Y2 log serial dilutions were made to provide a total of five drug concentrations plus control. Aliquots of 100 μl of these different drug dilutions were added to the appropriate microtiter wells already containing 100 μl of medium, resulting in the required final drug concentrations (8.0×10^−5 M to 8.0×10^−9 M).
(§3) Following drug addition, the plates were incubated for an additional 48 h at 37° C., 5% CO2, 95% air, and 100% relative humidity. For adherent cells, the assay was terminated by the addition of cold TCA. Cells were fixed in situ by the gentle addition of 50 μl of cold 50% (w/v) TCA (final concentration, 10% TCA) and incubated for 60 minutes at 4° C. Supernatants were discarded, and the plates were washed five times with tap water and air-dried. Sulforhodamine B (SRB) solution (100 μl) at 0.4% (w/v) in 1% acetic acid was added to each well, and plates were incubated for 10 minutes at room temperature. After staining, unbound dye was removed by washing five times with 1% acetic acid and the plates were air-dried. Bound stain was subsequently solubilized with 10 mM trizma base, and the absorbance was read on an automated plate reader at a wavelength of 515 nm. For suspension cells, the methodology was the same except that the assay was terminated by fixing settled cells at the bottom of the wells by gently adding 50 μl of 80% TCA (final concentration, 16% TCA).
(§4) The growth inhibitory activity of ECO-04601 was measured by NCI utilizing the GI50 value, rather than the classical IC50 value.

The subject of the next test is ACHN. Particulars: Homo sapiens, Renal, 48 h. Here is the method:
as §1, §2, §3, §4

For another test, the system named is SK-MEL-28. Particulars: Homo sapiens, SK-MEL-28, Melanoma, 48 h. As to the method: as §1, §2, §3, §4
The next test concerns RPMI-8226. Conditions: Homo sapiens, RPMI-8226, Leukemia, 48 h. As to the method: as §1, §2, §3, §4
A further test relates to COLO 205. Conditions: Homo sapiens, COLO 205, Colon, 48 h. As to the method: as §1, §2, §3, §4
The subject of a further test is SNB-19. Conditions: Homo sapiens, SNB-19, CNS, 48 h. Here is the method:
as §1, §2, §3, §4

For the next test, the system named is SF-268. Conditions: Homo sapiens, SF-268, CNS, 48 h. As to the method: as §1, §2, §3, §4
Another test concerns SN12C. Conditions: Homo sapiens, Renal, 48 h. Here is the method:
as §1, §2, §3, §4

The subject of the next test is K-562. Conditions: Homo sapiens, K562, K-562, Leukemia, 48 h. As to the method: as §1, §2, §3, §4
Another test concerns EKVX. Conditions: Homo sapiens, Non-Small Cell Lung, 48 h. Here is the method:
as §1, §2, §3, §4

A further test deals with M14. Particulars: Homo sapiens, M14, Melanoma, 48 h. As to the method: as §1, §2, §3, §4
The next test concerns A549/ATCC. Conditions: Homo sapiens, Non-Small Cell Lung, 48 h. Here is the method:
as §1, §2, §3, §4

The next test relates to NCI-H460. Conditions: Homo sapiens, NCI-H460, Non-Small Cell Lung, 48 h. As to the method:
as §1, §2, §3, §4

A further test has as its system NCI-H522. Conditions: Homo sapiens, NCI-H522, Non-Small Cell Lung, 48 h. As to the method:
as §1, §2, §3, §4

The test system of the next test is SK-OV-3. Conditions: Homo sapiens, SK-OV-3, Ovarian, 48 h. As to the method: as §1, §2, §3, §4
The subject of a further test is NCI/ADR-RES. Particulars: Homo sapiens, Breast, 48 h. As to the method:
as §1, §2, §3, §4

Another test concerns NCI-H23. Conditions: Homo sapiens, NCI-H23, Non-Small Cell Lung, 48 h. As to the method:
as §1, §2, §3, §4

A further test concerns OVCAR-5. Conditions: Homo sapiens, OVCAR-5, Ovarian, 48 h. As to the method:
as §1, §2, §3, §4

The subject of the next test is HCT-15. Particulars: Homo sapiens, HCT-15, Colon, 48 h. As to the method:
as §1, §2, §3, §4

Another test deals with CCRF-CEM. Conditions: Homo sapiens, Leukemia, 48 h. As to the method: as §1, §2, §3, §4
A further test concerns UACC-62. Conditions: Homo sapiens, UACC-62, Melanoma, 48 h. Here is the method: as §1, §2, §3, §4
The subject of another test is UO-31. Particulars: Homo sapiens, UO-31, Renal, 48 h. As to the method: as §1, §2, §3, §4
The test system of a further test is HCT-116. Conditions: Homo sapiens, HCT-116, Colon, 48 h. As to the method:
as §1, §2, §3, §4

One may read the GI50 as the concentration that inhibits growth by half. A low value points to greater sensitivity of the cells.

Consider `CC(C)=CCC/C(C)=C/CC/C(C)=C/CN1C(=O)c2cccc(O)c2Nc2c(O)cc(O)cc21` [ECO-04601, 10-farnesyl-4,6,8-trihydroxy-dibenzodiazepin-11-one], for which the GI50 in the test with HS 578T amounted to 2.76 µM; in the test on ACHN it was 3.1 µM; in the test on SK-MEL-28 it was 11.6 µM; in the test on RPMI-8226, 3.15 µM; in the test with COLO 205, 12.7 µM; in the test with SNB-19 it was 2.9 µM. In addition, the GI50 in the test on SF-268 came to 4.94 µM; in the test on SN12C, 3.85 µM; with K-562, 1.43 µM; in the test with EKVX it was 0.23 µM; in the test with M14, 4.57 µM; in the test with A549/ATCC, 9.1 µM. Moreover, the GI50 with NCI-H460 came to 13.6 µM; with NCI-H522, 3.44 µM; in the test with SK-OV-3, 4 µM; in the test with NCI/ADR-RES it was 18.3 µM; in the test with NCI-H23, 2.02 µM; with OVCAR-5, 2.81 µM. The GI50 in the test with HCT-15 turned out to be 9.73 µM; in the test with CCRF-CEM, 1.08 µM; with UACC-62, 1.55 µM; with UO-31 it was 19.7 µM; in the test with HCT-116, 2.92 µM.
